Assay results as given in patent publication US5840684A, “Glycopeptide antibiotic derivatives” (Eli Lilly and Company, priority 1995, dated 1998).
Values after ≈ are worked out from the molar mass of the structure shown.

What was measured:
Entercoccus faecium 2041 = test: broth micro-dilution MIC; format: cell-based; settings: Entercoccus faecium 2041
Method: (§1) The formula I compounds have in vitro and in vivo activity against Gram-positive pathogenic bacteria. The MIC's were determined using a standard broth micro-dilution assay.

Entercoccus faecium 180 = test: broth micro-dilution MIC; format: cell-based; settings: Entercoccus faecium 180
Method: as §1

[1] = system: Streptococcus pneumoniae P1; test: broth micro-dilution MIC; format: cell-based
Method: as §1

[2] = system: Staphylococcus haemolyticus 105; test: broth micro-dilution MIC; format: cell-based
Method: as §1

[3] = system: Staphylococcus epidermidis 270; test: broth micro-dilution MIC; format: cell-based
Method: as §1

[4] = system: Staphylococcus haemolyticus 415; test: broth micro-dilution MIC; format: cell-based
Method: as §1

[5] = system: Enterococcus gallinarum 245; test: broth micro-dilution MIC; format: cell-based; settings: Enterococcus gallinarum 245
Method: as §1

[6] = system: Staphylococcus aureus S13E; format: cell-based
Method: (§2) The MIC's were determined using a standard broth micro-dilution assay.

[7] = system: Staphylococcus aureus SA1199B; format: cell-based
Method: as §2

[8] = system: vancomycin-susceptible enterococci; test: broth micro-dilution, mean geometric MIC; format: cell-based, Enterococcus faecium and Enterococcus faecalis; settings: enterococci, 24-hour incubation
[9] = system: Streptococcus pyogenes C203; test: broth micro-dilution MIC; format: cell-based
Method: as §2

Entercoccus faecium 276 = test: broth micro-dilution MIC; format: cell-based
Method: as §2

[10] = system: Staphylococcus aureus X400; test: broth micro-dilution MIC; format: cell-based
Method: as §2

[11] = system: Entercoccus faecium 180-1; test: broth micro-dilution MIC; format: cell-based
Method: as §2

[12] = system: Staphylococcus aureus 491; test: broth micro-dilution MIC; format: cell-based
Method: as §2

[13] = system: Staphylococcus aureus SA1199; test: broth micro-dilution MIC; format: cell-based
Method: as §2

[14] = system: Staphylococcus aureus X778; test: broth micro-dilution MIC; format: cell-based
Method: as §2

[15] = system: Staphylococcus aureus SA1199A; test: broth micro-dilution MIC; format: cell-based
Method: as §2

[16] = system: Staphylococcus aureus 489; test: broth micro-dilution MIC; format: cell-based
Method: as §2

[17] = system: vancomycin-resistant enterococci; test: broth micro-dilution, mean geometric MIC; format: cell-based, Enterococcus faecium and Enterococcus faecalis; settings: enterococci, 24-hour incubation
[18] = system: Staphylococcus aureus 447; test: broth micro-dilution MIC; format: cell-based
Method: as §2

[19] = system: Staphylococcus aureus 446; test: broth micro-dilution MIC; format: cell-based
Method: as §2

SMILES | MIC (Entercoccus faecium 2041) | MIC (Entercoccus faecium 180) | MIC [1] | MIC [2] | MIC [3] | MIC [4] | MIC [5] | MIC [6] | MIC [7] | mean geometric MIC, Vancomycin Sensitive Strains [8] | MIC (Entercoccus faecium 276) | MIC [10] | MIC [11] | MIC [12] | MIC [13] | MIC [14] | MIC [15] | MIC [16] | mean geometric MIC, Vancomycin Resistant Strains [17] | MIC [19] | also measured
CNC(CC(C)C)C(=O)NC1C(=O)NC(CC(N)=O)C(=O)NC2C(=O)NC3C(=O)NC(C(=O)NC(C(=O)O)c4cc(O)cc(O)c4-c4cc3ccc4O)C(OC3CC(C)(N)C(O)C(C)O3)c3ccc(c(Cl)c3)Oc3cc2cc(c3OC2OC(CO)C(O)C(O)C2OC2CC(C)(NCc3ccc(Oc4ccccc4Cl)c([N+](=O)[O-])c3)C(O)C(C)O2)Oc2ccc(cc2Cl)C1O (stereo not shown) [Compound 88] | ≤ 0.06 µg/mL | 0.125 µg/mL (≈ 0.0674 µM) | ≤ 0.06 µg/mL | 1 µg/mL (≈ 0.539 µM) | 1 µg/mL (≈ 0.539 µM) | 2 µg/mL (≈ 1.08 µM) | ≤ 0.06 µg/mL | 1 µg/mL (≈ 0.539 µM) | 1 µg/mL (≈ 0.539 µM) | 0.055 µg/mL | ≤ 0.06 µg/mL | ≤ 0.06 µg/mL | ≤ 0.06 µg/mL | 0.5 µg/mL (≈ 0.27 µM) | 1 µg/mL (≈ 0.539 µM) | 0.5 µg/mL (≈ 0.27 µM) | ≤ 0.06 µg/mL | 0.5 µg/mL (≈ 0.27 µM) | 1.7 µg/mL | – | MIC [9]: ≤ 0.06 µg/mL
CNC(CC(C)C)C(=O)NC1C(=O)NC(CC(N)=O)C(=O)NC2C(=O)NC3C(=O)NC(C(=O)NC(C(=O)O)c4cc(O)cc(O)c4-c4cc3ccc4O)C(OC3CC(C)(N)C(O)C(C)O3)c3ccc(c(Cl)c3)Oc3cc2cc(c3OC2OC(CO)C(O)C(O)C2OC2CC(C)(NCc3ccc(-c4ccccc4)cc3F)C(O)C(C)O2)Oc2ccc(cc2Cl)C1O (stereo not shown) [Compound 206] | 0.25 µg/mL (≈ 0.141 µM) | ≤ 0.06 µg/mL | ≤ 0.06 µg/mL | 0.5 µg/mL (≈ 0.281 µM) | 0.25 µg/mL (≈ 0.141 µM) | 1 µg/mL (≈ 0.563 µM) | 1 µg/mL (≈ 0.563 µM) | 1 µg/mL (≈ 0.563 µM) | 1 µg/mL (≈ 0.563 µM) | 0.095 µg/mL | ≤ 0.06 µg/mL | 0.5 µg/mL (≈ 0.281 µM) | ≤ 0.06 µg/mL | ≤ 0.06 µg/mL | 0.5 µg/mL (≈ 0.281 µM) | 0.5 µg/mL (≈ 0.281 µM) | ≤ 0.06 µg/mL | 1 µg/mL (≈ 0.563 µM) | 1.7 µg/mL | 0.5 µg/mL (≈ 0.281 µM) | MIC [18]: 0.5 µg/mL (≈ 0.281 µM)
CCCCCCCCC#CCCCCCCNC1(C)CC(OC2C(Oc3c4cc5cc3Oc3ccc(cc3Cl)C(OC3CC(C)(N)C(O)C(C)O3)C3NC(=O)C(NC(=O)C5NC(=O)C(CC(N)=O)NC(=O)C(NC(=O)C(CC(C)C)NC)C(O)c5ccc(c(Cl)c5)O4)c4ccc(O)c(c4)-c4c(O)cc(O)cc4C(C(=O)O)NC3=O)OC(CO)C(O)C2O)OC(C)C1O (stereo not shown) [Compound 207] | 0.125 µg/mL (≈ 0.069 µM) | 1 µg/mL (≈ 0.552 µM) | ≤ 0.06 µg/mL | 8 µg/mL (≈ 4.41 µM) | 8 µg/mL (≈ 4.41 µM) | 1 µg/mL (≈ 0.552 µM) | 1 µg/mL (≈ 0.552 µM) | 8 µg/mL (≈ 4.41 µM) | 16 µg/mL (≈ 8.83 µM) | 0.50 µg/mL | 0.25 µg/mL (≈ 0.138 µM) | 8 µg/mL (≈ 4.41 µM) | ≤ 0.06 µg/mL | 1 µg/mL (≈ 0.552 µM) | 8 µg/mL (≈ 4.41 µM) | 8 µg/mL (≈ 4.41 µM) | 4 µg/mL (≈ 2.21 µM) | 4 µg/mL (≈ 2.21 µM) | 1.2 µg/mL | 8 µg/mL (≈ 4.41 µM) | MIC [18]: 8 µg/mL (≈ 4.41 µM)
CNC(CC(C)C)C(=O)NC1C(=O)NC(CC(N)=O)C(=O)NC2C(=O)NC3C(=O)NC(C(=O)NC(C(=O)O)c4cc(O)cc(O)c4-c4cc3ccc4O)C(OC3CC(C)(N)C(O)C(C)O3)c3ccc(c(Cl)c3)Oc3cc2cc(c3OC2OC(CO)C(O)C(O)C2OC2CC(C)(NCc3ccc(-c4ccc([N+](=O)[O-])cc4)c([N+](=O)[O-])c3)C(O)C(C)O2)Oc2ccc(cc2Cl)C1O (stereo not shown) [Compound 212] | ≤ 0.06 µg/mL | ≤ 0.06 µg/mL | ≤ 0.06 µg/mL | 1 µg/mL (≈ 0.541 µM) | ≤ 0.06 µg/mL | 1 µg/mL (≈ 0.541 µM) | 1 µg/mL (≈ 0.541 µM) | ≤ 0.06 µg/mL | ≤ 0.06 µg/mL | 0.036 µg/mL | ≤ 0.06 µg/mL | ≤ 0.06 µg/mL | ≤ 0.06 µg/mL | ≤ 0.06 µg/mL | ≤ 0.06 µg/mL | ≤ 0.06 µg/mL | ≤ 0.06 µg/mL | ≤ 0.06 µg/mL | 0.50 µg/mL | ≤ 0.06 µg/mL | –
